Test [1] deals with SKOV3 human ovarian carcinoma cells not infected (NR−). Description: cells. The test is classed as cell-based.
Test [2] addresses E. coli nitroreductase (Escherichia coli, UniProt P38489). It counts as biochemical. The note with it: 200 μM compound, 1 mM NADH, 1.8 μg E. coli nitroreductase, 10 mM phosphate buffer pH 7.0, 37° C., 250 μL, UV 340 nm.
For test [3], the system named is SKOV3 human ovarian carcinoma cells infected with adenovirus expressing E. coli nitroreductase (NR+). Description: Cytotoxicity in SKOV3 cells infected with adenovirus expressing E. coli nitroreductase (NR+), MTT. It counts as cell-based. The note with it: for IC50: adenovirus NR, 100 pfu/cell; for Ratio of IC50 values (NR−/NR+): SKOV3, 18 hour drug exposure.
Where [4] appears, read: 18 hour drug exposure; uninfected cells; read-out: IC50 in SKOV3 NR−.
[5] abbreviates: 18 hour drug exposure, read-out: IC50 in SKOV3 NR+.
Where [6] appears, read: read-out: IC50 in SKOV3 NR+, 18 hour drug exposure.
Where [7] appears, read: Homo sapiens, SK-OV-3, 18 h, read-out: IC50 in SKOV3 NR−.
The mark [8] stands for this setting: Homo sapiens, SK-OV-3, 18 h, read-out: IC50 in SKOV3 NR+, 18 hour drug exposure.

Read-outs that look alike come from different tables or passages of the source.

Chain of E. coli nitroreductase (P38489 whole entry): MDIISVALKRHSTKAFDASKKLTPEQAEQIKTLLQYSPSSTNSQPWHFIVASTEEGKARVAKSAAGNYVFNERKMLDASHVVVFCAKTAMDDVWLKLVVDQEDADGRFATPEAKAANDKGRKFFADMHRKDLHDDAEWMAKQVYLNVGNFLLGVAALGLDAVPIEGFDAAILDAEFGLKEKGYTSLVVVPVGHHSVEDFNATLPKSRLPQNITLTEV

As usually defined, the IC50 is the point on the concentration scale where inhibition reaches its midpoint. As for `NC(=O)c1cc(COP(N)(=O)N(CCCl)CCCl)ccc1[N+](=O)[O-]` (stereo not drawn) [Compound 15e, 3-carboxamide-4-nitrobenzyl N,N-bis(2-chloroethyl)phosphordiamidate], the IC50 in test [1] (setting [4]) is greater than 1000 µM; in test [3] (setting [5]), 41 µM. Moreover, in test [2], the “NR Assay vi (initial velocity)” value came out at 0.38 nmol/min. Moreover, the “Ratio of IC50 values (NR−/NR+)” value in test [3] is greater than 24.
As for `CC(OP(N)(=O)N(CCCl)CCCl)c1ccc([N+](=O)[O-])cc1` (single isomer, unassigned) [Compound 15d-B, 1-(4-nitrophenyl)ethyl N,N-bis(2-chloroethyl)phosphordiamidate], the IC50 in test [1] (read-out: IC50 in SKOV3 NR−; 18 hour drug exposure; uninfected cells) was greater than 1000 µM; in test [3] (setting [6]), 4 µM. The “NR Assay vi (initial velocity)” value in test [2] amounted to 1.65 nmol/min. Besides, the “Ratio of IC50 values (NR−/NR+)” value in test [3] is greater than 250.
For the molecule `COC(=O)c1cc(COP(N)(=O)N(CCCl)CCCl)ccc1[N+](=O)[O-]` (stereo not drawn) [Compound 15f, 3-methoxycarbonyl-4-nitrobenzyl N,N-bis(2-chloroethyl) phosphordiamidate], the IC50 in test [1] (setting [4]) was 400 µM; in test [3] (setting [5]), 2.1 µM. Further, the “NR Assay vi (initial velocity)” value in test [2] is 0.30 nmol/min. In test [3], the “Ratio of IC50 values (NR−/NR+)” value is listed as 190.
Consider `COc1cc([N+](=O)[O-])ccc1COP(N)(=O)N(CCCl)CCCl` (stereo not drawn) [Compound 15i, 2-methoxy-4-nitrobenzyl N,N-bis(2-chloroethyl)phosphordiamidate], for which the IC50 in test [1] (setting [7]) is greater than 1000 µM; in test [3] (setting [8]) it was 1.8 µM. Further, the “NR Assay vi (initial velocity)” value in test [2] worked out at 12.56 nmol/min. In addition, in test [3], the “Ratio of IC50 values (NR−/NR+)” value was greater than 556.
The like results for `NP(=O)(OCc1ccccc1[N+](=O)[O-])N(CCCl)CCCl` (stereo not drawn) [Compound 15a, 2-nitrobenzyl N,N-bis(2-chloroethyl)phosphordiamidate] were, in that order, 950 µM, 90 µM, 0.46 nmol/min and 11.
The like results for `Cc1cc(COP(N)(=O)N(CCCl)CCCl)ccc1[N+](=O)[O-]` (stereo not drawn) [Compound 15g, 3-methyl-4-nitrobenzyl N,N-bis(2-chloroethyl)phosphordiamidate] were, in that order, 510 µM, 3.3 µM, 1.61 nmol/min and 155.
Consider `NP(=O)(OCc1cccc([N+](=O)[O-])c1)N(CCCl)CCCl` (stereo not drawn) [Compound 15b, 3-nitrobenzyl N,N-bis(2-chloroethyl)phosphordiamidate], for which the 50% inhibitory concentration (IC50) is 820 µM in test [1] (setting [7]) and 240 µM in test [3] (setting [8]). For the same molecule, in test [2], the “NR Assay vi (initial velocity)” value turned out to be 1.23 nmol/min. In addition, in test [3], the “Ratio of IC50 values (NR−/NR+)” value is 3.4.
`CC(OP(N)(=O)N(CCCl)CCCl)c1ccc([N+](=O)[O-])cc1` (single isomer, unassigned) [Compound 15d-A, 1-(4-nitrophenyl)ethyl N,N-bis(2-chloroethyl)phosphordiamidate]: the IC50 in test [1] (setting [7]) is greater than 1000 µM; in test [3] (setting [6]) it was 1.8 µM. For the same molecule, the “NR Assay vi (initial velocity)” value in test [2] stood at 2.53 nmol/min. For the same molecule, the “Ratio of IC50 values (NR−/NR+)” value in test [3] is given as greater than 556.
On to `COc1cc(COP(N)(=O)N(CCCl)CCCl)ccc1[N+](=O)[O-]` (stereo not drawn) [Compound 15h, 3-methoxy-4-nitrobenzyl N,N-bis(2-chloroethyl)phosphordiamidate], for which the IC50 in test [1] (setting [7]) stood at 910 µM; in test [3] (setting [8]) it was 3.1 µM. For the same molecule, the “NR Assay vi (initial velocity)” value in test [2] worked out at 4.40 nmol/min. Further, the “Ratio of IC50 values (NR−/NR+)” value in test [3] worked out at 294.

The record behind these values is patent US20040214798A1 (priority 2003, published 2004).
